Test results from BindingDB's records for doi:10.1021/jm00063a003 (Merck Sharp and Dohme Research Laboratories, 1993).

Experiment: Displacement of [3H]mesulergine from pig cortex 5-hydroxytryptamine 1C receptor

SMILES	IC50 [nM]
NCCc1c[nH]c2ccc(Cc3nc(N)no3)cc12	3160
CC(=O)Nc1ccc(Cc2noc(-c3ccc4[nH]cc(CCN)c4c3)n2)cc1	1580
COc1ccc(Cc2noc(-c3ccc4[nH]cc(CCN)c4c3)n2)cc1	794
NCCc1c[nH]c2ccc(-c3nc(C4CC4)no3)cc12	1000
CN(C)CCc1c[nH]c2ccc(Cc3nc(N)ns3)cc12	251
NCCc1c[nH]c2ccc(CCc3nc(Cc4ccccc4)no3)cc12	794
Cc1noc(-c2ccc3[nH]cc(CCN)c3c2)n1	1260
NCCc1c[nH]c2ccc(-c3nc(Cc4ccccc4)no3)cc12	3980
Cc1noc(Cc2ccc3[nH]cc(CCN(C)C)c3c2)n1	1000
Cc1noc(Cc2ccc3[nH]cc(CCN)c3c2)n1	1260
CN(C)CCc1c[nH]c2ccc(CCc3nc(N)no3)cc12	1000
CS(=O)(=O)Nc1ccc(Cc2noc(-c3ccc4[nH]cc(CCN)c4c3)n2)cc1 [L-694247]	316
